In brackets after ≈: the same amount, converted by molar mass. Several values for one entry are separate records, joined by “and”; a condition that tells them apart may be missing. Equal entries are not always repeated. Entries after “also recorded” stand apart in the source; their conditions may differ.
Assays:
Type in all cases: cell-based
[1] = test system: Escherichia coli (ATCC 8739); assay: Minimal Inhibitory Concentration (MIC) on Escherichia coli with or without PMBN, OD600 after O/N growth; conditions: for MIC: molecule alone
Method: The Minimal Inhibitory Concentration (MIC) of molecules 2329, 2412, 2452 and 2461 together with polymyxin B nonapeptide (PMBN) was determined on Escherichia coli (ATCC 8739) according to EUCAST (European Committee on Antimicrobial Susceptibility Testing) recommendations.
(§1) Briefly, a single colony grown on a Luria-Bertani Agar (LB) plate was resuspended and cultured in the LB medium overnight (O/N) in aerobic conditions (37° C. with 220 rpm shaking), next day a 1:50 inoculum in Mueller-Hinton broth (MHB) was incubated in aerobic conditions for 1h30 (OD=0.08-0.1) and an inoculum of 1:300 dilution, corresponding to 3×10^6 CFU/ml, was incubated in presence or absence of different concentrations of the molecules in 1% DMSO (vehicle) with or without Polymyxin B nonapeptide (PMBN) at 40 μg/ml. After O/N growth the OD of each culture was measured at 600 nm in a spectrophotometer (OD600). The MIC represents the concentration at which there is no visible growth of bacteria, i.e. ΔOD at 600 nm equal to zero wherein ΔOD is the difference between the resulting optical density (OD) with the molecule together with PMBN, and the optical density (OD) of the blank (blank is the medium) alone.
(§2) A single colony grown on an Lurian-Bertani (LB) agar plate is resuspended and cultured in LB medium overnight (O/N) in aerobic conditions (37° C. with 220 rpm shaking), next day a 1:50 inoculum in Mueller-Hinton broth (MHB) is incubated in aerobic conditions for 1h30 (OD=0.08-0.1) and an inoculum of 1:300 dilution, corresponding to 3×10^6 CFU/ml, is incubated in presence or absence of different concentrations of the tested molecules in 1% DMSO (vehicle) with or without PMBN at 40 μg/ml. After O/N growth the OD of each culture was measured at 600 nm (OD600) in a spectrophotometer (Victor 3-Perkin Elmer). The MIC represents the concentration at which there is no visible growth of bacteria, i.e. ΔOD at 600 nm equal to zero wherein ΔOD is the difference between the resulting optical density (OD) with the molecule together with PMBN, and the optical density (OD) of the blank (blank is the medium) alone.
as §1, with “cultured in LB medium” for “cultured in the LB medium”, “of the above-mentioned molecules in” for “of the molecules in”
as §2, with “a Luria-Bertani” for “an Lurian-Bertani”, “above-mentioned pyrazolopyrimidine molecule” for “tested molecules”, “alone. […]” for “alone.”

[2] = test system: E. coli (ATCC 8739) biofilm; assay: Inhibition of E. coli biofilm formation (crystal violet, biofilm mass); conditions: for E. coli biofilm mass expressed in percentage: replicate values
Method: 1.5×10^4 CFU of E. coli (ATCC 8739) in early logarithmic phase were added in a well of a 48-well polystyrene plate containing Luria Bertani (LB) medium supplemented with 5% mannose (purchased from Sigma-aldrich #M6020-25G) and incubated for 48h at 37° C. The incubation was carried in static conditions in presence or absence of different concentrations of the molecules 2329 or 2666 in combination or not with the penetrating agent polymyxin B nonapeptide (PMBN) (35 μg/ml) (provided by Sigma-aldrich #P2076-5MG). After incubation, planktonic bacteria, which are bacteria floating in the liquid medium, were removed and adherent bacteria were washed 2 times in PBS. Crystal Violet (Sigma-aldrich #C0775-25G) (1% solution in dH2O) was then added to the wells for 15 min at RT to stain the biofilm. Wells were washed 3 times with PBS (phosphate buffered saline provided by Lonza #17-516F) to eliminate unbound crystal violet and […] Acetic Acid 20% was added and incubated at RT for 10 min. The absorbance of the solution was measured at 570 nm with an Infinite 200 PRO (Tecan) reflecting the total biomass of the biofilm, which corresponds to the sum of live and dead bacteria. The Biofilm Mass, expressed in percentage, is calculated by the following formula: Abs(sample)/Abs(DMSO 1%)*100, wherein the Abs(sample) or Abs(DMSO) represents the difference between the absorbance of the sample or DMSO and the blank (blank is the medium alone without bacteria).

[3] = test system: Pseudomonas aeruginosa (ATCC27853); assay: Minimal Inhibitory Concentration (MIC) on Pseudomonas aeruginosa with or without PMBN
Method: A single colony grown on an tryptic soy agar plate is resuspended and cultured in tryptic soy broth medium overnight (O/N) in aerobic conditions (37° C. with 220 rpm shaking), next day a 1:100 inoculum in Mueller-Hinton broth (MHB) is incubated in aerobic conditions for 3h (OD=0.5-0.6) and an inoculum of 1:1000 dilution, corresponding to 1-3×10^5 CFU/ml, is incubated in presence or absence of different concentrations of the tested molecules in 1% DMSO (vehicle) with or without PMBN at 0.5 μg/ml. After 28-30h growth the OD of each culture was measured at 600 nm (OD600) in a spectrophotometer (Victor 3-Perkin Elmer). The MIC represents the concentration at which there is no visible growth of bacteria, i.e. ΔOD at 600 nm equal to zero (blank is the medium alone) wherein ΔOD is the difference between the resulting optical density (OD) with the molecule together with PMBN, and the optical density (OD) of the blank (blank is the medium) alone.

## Polymyxin B nonapeptide [PMBN, reference compound]
[1]; 40 μg/ml PMBN alone
  Inhibition of E. coli growth by PMBN alone: unable to inhibit; also recorded: did not inhibit
[2]; PMBN 35 μg/ml alone
  Effect on E. coli biofilm growth (FIG. 2): reduced by half
  E. coli biofilm mass expressed in percentage: 47.94 percentage and 48.98 percentage and 53.90 percentage and 50.87 percentage
[3]; 0.5 μg/ml PMBN alone
  Inhibition of Pseudomonas aeruginosa growth by PMBN alone: did not inhibit

## CCCSc1nc(N[C@@H]2C[C@H]2c2ccc(F)c(F)c2)c2ncn(C)c2n1 [molecule 2329, N-((1R,2S)-2-(3,4-difluorophenyl)cyclopropyl)-9-methyl-2-(propylthio)-9H-purin-6-amine]
[1]; 10 μM with 40 μg/ml PMBN
  OD600 nm after O/N growth of Escherichia coli (FIG. 4): killed all bacteria
[1]; E. coli (ATCC 8739)
  MIC: >100 µM
[1]; E. coli (ATCC 8739), together with PMBN at 40 μg/ml
  Minimal inhibitory concentration With PMBN: 10 µM (≈ 3.75 µg/mL)
[1]; Escherichia coli, ATCC8739, E. coli (ATCC 8739)
  MIC: > 100 µM
[1]; with 40 μg/ml PMBN
  Activity against Escherichia coli (ATCC 8739), conclusion: bactericidal activity
[2]; 5 μM combined with 35 μg/ml PMBN
  Effect on E. coli biofilm formation (FIG. 2): fully inhibited
[2]; 2329 20 μM without PMBN
  E. coli biofilm mass expressed in percentage: 110.45 percentage and 124.24 percentage and 97.41 percentage and 107.12 percentage
[2]; P + 2329 5 μM (PMBN 35 μg/ml)
  E. coli biofilm mass expressed in percentage: 12.79 percentage and 11.45 percentage and −1.25 percentage and −1.59 percentage
[2]; P + 2329 10 μM (PMBN 35 μg/ml)
  E. coli biofilm mass expressed in percentage: 0.12 percentage and −1.01 percentage and 2.96 percentage and 3.11 percentage
[2]; molecule alone, without PMBN
  Effect on E. coli biofilm growth (FIG. 2): no effect
[3]; Pseudomonas aeruginosa (ATCC 27853), molecule alone
  Minimal inhibitory concentration without PMBN: >100 µM
[3]; Pseudomonas aeruginosa (ATCC 27853), together with PMBN at 0.5 μg/ml
  Minimal inhibitory concentration With PMBN: 50 µM (≈ 18.8 µg/mL)

— patent publication US12318388B2, “Pyrimidine derivatives for prevention and treatment of gram-negative bacterial infection, contamination and fouling” (UNIVERSITÉ DE LIÈGE, priority 2019, dated 2025)
